From ChEMBL document CHEMBL5380863 (J Med Chem, 2023)
Values belong to the compound of their own block, whether it stands above or below them.

What was measured:
in vivo [1] = details: Sprague-Dawley, rat, iv, 3 mg/kg
Histone deacetylase 1 = Histone deacetylase 1 (Homo sapiens, UniProt Q13547); format: cell-based, HeLa
in vivo [2] = details: Sprague-Dawley, rat, po, 15 mg/kg
Histone deacetylase 7 = Histone deacetylase 7 (Homo sapiens, UniProt Q8WUI4)
HEL = experiment: cells; format: functional, cell-based; details: Homo sapiens, 72 h
in vivo [3] = details: Sprague-Dawley, rat, iv, 3 mg/kg; remark: listed apart in the source
[4] = target: Tyrosine-protein kinase Fyn (Homo sapiens) (UniProt P06241); details: dose 500.0 nM
Tyrosine-protein kinase Fyn (Homo sapiens), sequence (P06241 2-537 limits assumed): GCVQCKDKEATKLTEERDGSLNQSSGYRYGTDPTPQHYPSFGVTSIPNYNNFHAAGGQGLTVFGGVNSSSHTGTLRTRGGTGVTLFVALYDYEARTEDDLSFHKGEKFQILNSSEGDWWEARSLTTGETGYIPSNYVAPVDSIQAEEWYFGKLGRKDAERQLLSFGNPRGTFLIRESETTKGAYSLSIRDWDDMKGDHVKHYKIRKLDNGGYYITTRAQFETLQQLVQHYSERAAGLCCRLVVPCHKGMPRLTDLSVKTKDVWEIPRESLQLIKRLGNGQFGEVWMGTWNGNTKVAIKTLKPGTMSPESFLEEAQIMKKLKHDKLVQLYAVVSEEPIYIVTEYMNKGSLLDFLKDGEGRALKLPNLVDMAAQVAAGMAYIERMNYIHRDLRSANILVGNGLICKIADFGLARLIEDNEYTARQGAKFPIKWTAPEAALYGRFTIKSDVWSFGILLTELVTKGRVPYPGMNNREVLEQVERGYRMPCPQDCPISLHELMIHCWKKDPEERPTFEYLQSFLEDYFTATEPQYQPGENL

Histone deacetylase = format: cell-based, Homo sapiens; details: hela
Histone deacetylase 2 = Histone deacetylase 2 (Homo sapiens, UniProt Q92769)
[5] = target: Protein deacetylase HDAC6 (Homo sapiens, UniProt Q9UBN7)
Histone deacetylase 8 = Histone deacetylase 8 (Homo sapiens, UniProt Q9BY41)
A549 = experiment: cells; format: functional, cell-based; details: Homo sapiens, A549, 72 h
in vivo [6] = details: Sprague-Dawley, rat, po, 15 mg/kg; remark: listed apart in the source
in vivo [7] = details: Sprague-Dawley, rat, po, 15 mg/kg; remark: listed apart in the source
HL-60 = experiment: cells; format: functional, cell-based; details: Homo sapiens, HL-60, 72 h
[8] = target: T1, Tyrosine-protein kinase JAK1 (Homo sapiens, UniProt P23458)
T1 sequence (P23458 whole entry): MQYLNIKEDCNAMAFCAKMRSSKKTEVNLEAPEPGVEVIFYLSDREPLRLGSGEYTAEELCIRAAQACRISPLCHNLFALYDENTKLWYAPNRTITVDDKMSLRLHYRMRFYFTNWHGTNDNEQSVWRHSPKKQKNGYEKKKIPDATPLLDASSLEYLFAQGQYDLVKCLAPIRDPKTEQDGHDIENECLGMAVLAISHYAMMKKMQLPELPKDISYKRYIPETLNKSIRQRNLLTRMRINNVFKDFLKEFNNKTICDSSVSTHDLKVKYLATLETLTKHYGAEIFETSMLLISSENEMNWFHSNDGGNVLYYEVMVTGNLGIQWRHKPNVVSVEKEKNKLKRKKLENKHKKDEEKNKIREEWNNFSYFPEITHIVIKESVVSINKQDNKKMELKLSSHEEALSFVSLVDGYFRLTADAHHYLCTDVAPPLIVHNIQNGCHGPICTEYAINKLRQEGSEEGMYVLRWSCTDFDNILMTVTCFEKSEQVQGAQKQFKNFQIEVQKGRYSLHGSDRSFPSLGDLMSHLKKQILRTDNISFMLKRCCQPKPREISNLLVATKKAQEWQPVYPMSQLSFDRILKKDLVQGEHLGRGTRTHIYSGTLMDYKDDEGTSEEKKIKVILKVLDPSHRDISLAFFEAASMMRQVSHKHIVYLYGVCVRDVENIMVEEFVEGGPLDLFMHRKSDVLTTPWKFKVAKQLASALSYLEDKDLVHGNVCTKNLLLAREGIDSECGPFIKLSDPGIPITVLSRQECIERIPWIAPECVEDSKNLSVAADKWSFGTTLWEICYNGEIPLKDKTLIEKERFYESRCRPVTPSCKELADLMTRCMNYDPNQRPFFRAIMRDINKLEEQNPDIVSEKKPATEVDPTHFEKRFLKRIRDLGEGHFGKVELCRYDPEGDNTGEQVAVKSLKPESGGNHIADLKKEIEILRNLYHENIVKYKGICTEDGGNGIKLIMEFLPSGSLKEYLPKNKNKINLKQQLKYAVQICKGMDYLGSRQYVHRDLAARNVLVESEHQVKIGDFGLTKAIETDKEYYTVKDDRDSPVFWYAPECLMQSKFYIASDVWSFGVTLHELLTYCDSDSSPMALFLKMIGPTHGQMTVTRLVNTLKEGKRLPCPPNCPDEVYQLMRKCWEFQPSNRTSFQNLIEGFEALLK

in vivo [9] = details: Sprague-Dawley, rat, po, 15 mg/kg; remark: listed apart in the source
HeLa = experiment: cells; format: functional, cell-based; details: Homo sapiens, 72 h
MCF7 = experiment: cells; format: functional, cell-based; details: Homo sapiens, MCF7, 72 h
[10] = target: Tyrosine-protein kinase JAK3 (Homo sapiens, UniProt P52333)
in vivo [11] = details: Sprague-Dawley, rat, po, 15 mg/kg; remark: listed apart in the source
[12] = target: Polyamine deacetylase HDAC10 (Homo sapiens, UniProt Q969S8)
[13] = target: Muscle, skeletal receptor tyrosine-protein kinase (Homo sapiens) (UniProt O15146); details: dose 500.0 nM
in vivo [14] = details: Sprague-Dawley, rat, iv, 3 mg/kg; remark: listed apart in the source
[15] = target: T1, Tyrosine-protein kinase JAK1; details: dose 500.0 nM
Histone deacetylase 11 = Histone deacetylase 11 (Homo sapiens, UniProt Q96DB2)
Histone deacetylase 3 = Histone deacetylase 3 (Homo sapiens, UniProt O15379)
Histone deacetylase 5 = Histone deacetylase 5 (Homo sapiens, UniProt Q9UQL6)
in vivo [16] = details: Sprague-Dawley, rat, po, 15 mg/kg; remark: listed apart in the source
Histone deacetylase 4 = Histone deacetylase 4 (Homo sapiens, UniProt P56524)
Histone deacetylase 4, sequence (P56524 whole entry): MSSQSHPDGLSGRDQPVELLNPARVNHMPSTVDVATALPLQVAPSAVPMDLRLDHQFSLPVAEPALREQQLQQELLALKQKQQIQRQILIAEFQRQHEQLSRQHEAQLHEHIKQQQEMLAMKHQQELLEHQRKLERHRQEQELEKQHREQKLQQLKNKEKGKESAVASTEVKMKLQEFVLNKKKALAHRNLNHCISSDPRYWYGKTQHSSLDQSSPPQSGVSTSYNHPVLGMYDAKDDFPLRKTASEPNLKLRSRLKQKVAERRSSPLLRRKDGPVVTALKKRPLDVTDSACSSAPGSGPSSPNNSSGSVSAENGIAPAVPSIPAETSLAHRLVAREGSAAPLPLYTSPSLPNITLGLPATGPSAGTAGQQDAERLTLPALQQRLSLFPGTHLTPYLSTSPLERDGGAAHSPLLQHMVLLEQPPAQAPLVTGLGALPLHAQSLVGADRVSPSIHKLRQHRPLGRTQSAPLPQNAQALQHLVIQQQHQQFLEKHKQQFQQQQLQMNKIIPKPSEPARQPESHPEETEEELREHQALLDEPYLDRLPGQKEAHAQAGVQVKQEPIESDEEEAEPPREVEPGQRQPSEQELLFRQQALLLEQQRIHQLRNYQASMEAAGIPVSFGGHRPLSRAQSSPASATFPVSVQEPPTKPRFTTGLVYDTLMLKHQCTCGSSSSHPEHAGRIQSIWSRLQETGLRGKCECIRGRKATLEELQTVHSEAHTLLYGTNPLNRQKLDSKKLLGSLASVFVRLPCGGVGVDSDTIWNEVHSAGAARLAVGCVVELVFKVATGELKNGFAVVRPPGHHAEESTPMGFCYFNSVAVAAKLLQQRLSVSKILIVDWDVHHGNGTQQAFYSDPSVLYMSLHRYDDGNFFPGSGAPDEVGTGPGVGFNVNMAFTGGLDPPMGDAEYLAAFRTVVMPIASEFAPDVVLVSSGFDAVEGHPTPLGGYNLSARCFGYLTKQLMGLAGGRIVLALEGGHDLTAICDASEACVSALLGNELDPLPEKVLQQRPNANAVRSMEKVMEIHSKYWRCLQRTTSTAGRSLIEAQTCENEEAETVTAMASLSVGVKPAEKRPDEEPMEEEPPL

[17] = target: Non-receptor tyrosine-protein kinase TYK2 (Homo sapiens, UniProt P29597)
Non-receptor tyrosine-protein kinase TYK2, sequence (P29597 whole entry): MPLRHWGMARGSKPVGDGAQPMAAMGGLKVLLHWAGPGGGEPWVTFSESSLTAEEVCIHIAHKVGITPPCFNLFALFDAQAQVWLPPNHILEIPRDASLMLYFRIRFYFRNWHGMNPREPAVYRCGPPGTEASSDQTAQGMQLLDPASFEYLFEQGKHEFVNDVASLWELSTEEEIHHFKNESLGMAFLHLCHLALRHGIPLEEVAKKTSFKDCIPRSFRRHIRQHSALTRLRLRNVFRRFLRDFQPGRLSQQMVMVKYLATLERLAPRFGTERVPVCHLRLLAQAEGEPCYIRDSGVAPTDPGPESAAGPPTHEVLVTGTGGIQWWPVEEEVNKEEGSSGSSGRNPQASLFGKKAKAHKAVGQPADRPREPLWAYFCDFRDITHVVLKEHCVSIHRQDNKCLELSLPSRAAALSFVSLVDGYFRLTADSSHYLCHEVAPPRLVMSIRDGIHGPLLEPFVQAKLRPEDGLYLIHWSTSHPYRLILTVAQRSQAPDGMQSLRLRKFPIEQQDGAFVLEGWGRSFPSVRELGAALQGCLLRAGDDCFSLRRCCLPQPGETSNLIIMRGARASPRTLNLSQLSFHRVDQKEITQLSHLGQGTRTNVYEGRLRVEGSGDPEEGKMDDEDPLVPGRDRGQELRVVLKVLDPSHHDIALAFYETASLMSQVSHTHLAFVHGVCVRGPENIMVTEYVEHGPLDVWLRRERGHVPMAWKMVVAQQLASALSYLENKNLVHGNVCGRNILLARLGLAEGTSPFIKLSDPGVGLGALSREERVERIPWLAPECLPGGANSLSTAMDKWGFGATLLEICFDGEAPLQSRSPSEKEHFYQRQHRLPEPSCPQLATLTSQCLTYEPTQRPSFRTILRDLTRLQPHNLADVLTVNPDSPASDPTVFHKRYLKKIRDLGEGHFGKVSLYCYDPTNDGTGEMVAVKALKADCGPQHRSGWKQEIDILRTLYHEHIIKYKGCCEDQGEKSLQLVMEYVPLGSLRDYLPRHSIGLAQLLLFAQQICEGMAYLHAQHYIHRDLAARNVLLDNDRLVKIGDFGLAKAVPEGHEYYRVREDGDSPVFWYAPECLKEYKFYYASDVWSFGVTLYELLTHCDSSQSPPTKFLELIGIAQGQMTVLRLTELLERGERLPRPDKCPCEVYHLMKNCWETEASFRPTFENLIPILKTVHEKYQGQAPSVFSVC

[18] = rat, in vivo, po, 15 mg/kg, 24 h
in vivo [19] = details: Sprague-Dawley, rat, po, 15 mg/kg; remark: listed apart in the source
K562 = experiment: cells; format: functional, cell-based; details: Homo sapiens, K562, 72 h
in vivo [20] = details: Sprague-Dawley, rat, iv, 3 mg/kg; remark: listed apart in the source
in vitro [21] = details: Sprague-Dawley, rat, plasma
in vivo [22] = details: Sprague-Dawley, rat, iv, 3 mg/kg; remark: listed apart in the source
[23] = target: Activated CDC42 kinase 1 (Homo sapiens) (UniProt Q07912); details: dose 500.0 nM
PC-3 = experiment: cells; format: functional, cell-based; details: Homo sapiens, PC-3, 72 h
in vitro [24] = details: Sprague-Dawley, rat, plasma; remark: listed apart in the source
Histone deacetylase 9 = Histone deacetylase 9 (Homo sapiens, UniProt Q9UKV0)
[25] = target: T2, Tyrosine-protein kinase JAK2 (Homo sapiens, UniProt O60674); details: dose 500.0 nM
T2 sequence (O60674 whole entry): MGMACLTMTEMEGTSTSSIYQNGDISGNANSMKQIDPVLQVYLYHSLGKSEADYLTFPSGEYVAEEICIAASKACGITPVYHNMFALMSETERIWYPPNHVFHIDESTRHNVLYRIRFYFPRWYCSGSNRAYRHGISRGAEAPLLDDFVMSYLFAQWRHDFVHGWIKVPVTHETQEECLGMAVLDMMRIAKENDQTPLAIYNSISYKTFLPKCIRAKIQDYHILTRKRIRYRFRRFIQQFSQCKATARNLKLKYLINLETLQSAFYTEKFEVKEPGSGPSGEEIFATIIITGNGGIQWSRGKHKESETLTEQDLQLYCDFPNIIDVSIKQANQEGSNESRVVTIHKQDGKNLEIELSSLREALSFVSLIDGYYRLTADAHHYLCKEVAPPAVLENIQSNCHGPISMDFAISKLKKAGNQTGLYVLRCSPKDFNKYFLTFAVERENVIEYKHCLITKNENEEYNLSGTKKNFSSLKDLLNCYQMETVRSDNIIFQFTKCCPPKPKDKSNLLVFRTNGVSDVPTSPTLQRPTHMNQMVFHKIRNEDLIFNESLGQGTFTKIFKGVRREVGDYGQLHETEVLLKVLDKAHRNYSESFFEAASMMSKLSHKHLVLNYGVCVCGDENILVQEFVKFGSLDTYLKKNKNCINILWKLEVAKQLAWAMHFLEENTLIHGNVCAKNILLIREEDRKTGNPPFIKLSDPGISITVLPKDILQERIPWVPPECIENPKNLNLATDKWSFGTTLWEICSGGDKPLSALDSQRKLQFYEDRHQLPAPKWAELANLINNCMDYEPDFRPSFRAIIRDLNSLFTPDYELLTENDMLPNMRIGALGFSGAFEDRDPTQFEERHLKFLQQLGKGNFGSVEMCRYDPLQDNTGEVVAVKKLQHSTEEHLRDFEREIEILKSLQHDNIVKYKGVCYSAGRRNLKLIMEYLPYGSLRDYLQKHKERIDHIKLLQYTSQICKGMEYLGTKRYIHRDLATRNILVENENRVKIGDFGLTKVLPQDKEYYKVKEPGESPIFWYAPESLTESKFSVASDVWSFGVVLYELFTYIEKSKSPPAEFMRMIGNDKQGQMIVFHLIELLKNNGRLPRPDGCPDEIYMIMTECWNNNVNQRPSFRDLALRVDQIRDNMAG

[26] = target: T2, Tyrosine-protein kinase JAK2

IC50 (HEL): 1.27 µM | IC50 (A549): 2.03 µM | IC50 (HL-60): 6.7 µM | IC50 (HeLa): 7.23 µM | IC50 (MCF7): 4.84 µM | IC50 (K562): 4.37 µM | IC50 (PC-3): 6.29 µM
Structure (SMILES): Cc1cnc(Nc2ccc(OCCCCCC(=O)NO)c(Cl)c2)nc1Nc1cccc(S(=O)(=O)NC(C)(C)C)c1

IC50 (HEL): 1.73 µM | IC50 (A549): 3.08 µM | IC50 (HL-60): 4.91 µM | IC50 (HeLa): > 50 µM | IC50 (MCF7): 8.93 µM | IC50 (K562): 8.85 µM | IC50 (PC-3): 4.92 µM
Structure (SMILES): Cc1cc(Nc2ncc(C)c(Nc3cccc(S(=O)(=O)NC(C)(C)C)c3)n2)ccc1OCCCCCCC(=O)NO

IC50 (HEL): 0.73 µM | IC50 (A549): 2.16 µM | IC50 (HL-60): 12 µM | IC50 (HeLa): 11.9 µM | IC50 (MCF7): 6.95 µM | IC50 (K562): 2.07 µM | IC50 (PC-3): 3.87 µM
Structure (SMILES): Cc1cnc(Nc2ccc(OCCCCCCC(=O)NO)c(Br)c2)nc1Nc1cccc(S(=O)(=O)NC(C)(C)C)c1

IC50 (HEL): 0.81 µM | IC50 (A549): 1.43 µM | IC50 (HL-60): 7.13 µM | IC50 (HeLa): 11.5 µM | IC50 (MCF7): 6.06 µM | IC50 (K562): 4.7 µM | IC50 (PC-3): 4.06 µM
Structure (SMILES): Cc1cnc(Nc2ccc(OCCCCCCC(=O)NO)c(Cl)c2)nc1Nc1cccc(S(=O)(=O)NC(C)(C)C)c1

Further lines, the compound ahead of its results:

Structure (SMILES): Cc1cnc(Nc2ccc(OCCCCCCC(=O)NO)c(F)c2)nc1Nc1cccc(S(=O)(=O)NC(C)(C)C)c1
clearance at 24 h (in vivo [1]): 98.3 mL/min/kg | IC50 (Histone deacetylase 1): 0.00043 µM | CL/F at 24 h (in vivo [2]): 98.3 mL/min/kg | IC50 (Histone deacetylase 7): > 10 µM | IC50 (HEL): 0.24 µM | MRT at 24 h (in vivo [3]): 0.161 h | inhibition [4]: 80% | IC50 (Histone deacetylase): 0.0002 µM | IC50 (Histone deacetylase 2): 0.299 µM | IC50 [5]: 0.00698 µM | IC50 (Histone deacetylase 8): > 10 µM | IC50 (A549): 1.27 µM | Cmax at 24 h (in vivo [6]): 79.1 ng/mL | Tmax at 24 h (in vivo [7]): 2.55 h | IC50 (HL-60): 3.37 µM | IC50 [8]: 0.041 µM | bioavailability at 24 h (in vivo [9]): 21.6% | IC50 (HeLa): 3.25 µM | IC50 (MCF7): 1.98 µM | IC50 [10]: 0.954 µM | AUC(0-t) at 24 h (in vivo [11]): 549 ng·h/mL | IC50 [12]: 0.127 µM | inhibition [13]: 80% | Vd at 24 h (in vivo [14]): 0.951 L/kg | inhibition [15]: 80% | IC50 (Histone deacetylase 11): 0.931 µM | IC50 (Histone deacetylase 3): 0.0739 µM | IC50 (Histone deacetylase 5): > 10 µM | half-life at 24 h (in vivo [16]): 1.81 h | IC50 (Histone deacetylase 4): > 10 µM | IC50 [17]: 0.78 µM | Vd [18]: 15.411 L/kg | MRT at 24 h (in vivo [19]): 5.11 h | IC50 (K562): 1.22 µM | half-life at 24 h (in vivo [20]): 6.72 min | AUC(0-t) at 22 h (in vitro [21]): 169000 ng·h/mL | AUC(0-t) at 24 h (in vivo [22]): 508 ng·h/mL | inhibition [23]: 70% | IC50 (PC-3): 3.04 µM | half-life at 22 h (in vitro [24]): 8.49 h | IC50 (Histone deacetylase 9): > 10 µM

Structure (SMILES): COc1cc(Nc2ncc(C)c(Nc3cccc(S(=O)(=O)NC(C)(C)C)c3)n2)ccc1OCCCCCCC(=O)NO
IC50 (HEL): 1.65 µM | IC50 (A549): 1.49 µM | IC50 (HL-60): 4.41 µM | IC50 (HeLa): 7.27 µM | IC50 (MCF7): 4.68 µM | IC50 (K562): 5.49 µM | IC50 (PC-3): 3.67 µM

Structure (SMILES): Cc1cnc(Nc2ccc(OCCCCCC(=O)NO)c(C(F)(F)F)c2)nc1Nc1cccc(S(=O)(=O)NC(C)(C)C)c1
IC50 (HEL): 2.44 µM | IC50 (A549): 2.91 µM | IC50 (HL-60): 6.85 µM | IC50 (HeLa): 5.1 µM | IC50 (MCF7): 2.93 µM | IC50 (K562): 3.45 µM | IC50 (PC-3): 2.87 µM

Structure (SMILES): Cc1cnc(Nc2ccc(OCCCCCCC(=O)NO)cc2)nc1Nc1cccc(S(=O)(=O)NC(C)(C)C)c1
clearance at 24 h (in vivo [1]): 76.2 mL/min/kg | IC50 (Histone deacetylase 1): 0.00034 µM | CL/F at 24 h (in vivo [2]): 76 mL/min/kg | IC50 (Histone deacetylase 7): > 10 µM | IC50 (HEL): 0.33 µM | MRT at 24 h (in vivo [3]): 0.185 h | inhibition [4]: > 95% | IC50 (Histone deacetylase): 0.00017 µM | IC50 (Histone deacetylase 2): 0.303 µM | IC50 [5]: 0.00444 µM | IC50 (Histone deacetylase 8): > 10 µM | IC50 (A549): 0.73 µM | Cmax at 24 h (in vivo [6]): 93.3 ng/mL | Tmax at 24 h (in vivo [7]): 2.91 h | IC50 (HL-60): 2.58 µM | IC50 [8]: 0.0271 µM | bioavailability at 24 h (in vivo [9]): 22.7% | IC50 (HeLa): 2.88 µM | IC50 (MCF7): 1.83 µM | IC50 [10]: 0.595 µM | AUC(0-t) at 24 h (in vivo [11]): 745 ng·h/mL | IC50 [12]: 0.116 µM | inhibition [13]: 70% | Vd at 24 h (in vivo [14]): 0.845 L/kg | inhibition [15]: 80% | IC50 (Histone deacetylase 11): 0.724 µM | inhibition [25]: > 95% | IC50 (Histone deacetylase 3): 0.0587 µM | IC50 (Histone deacetylase 5): > 10 µM | half-life at 24 h (in vivo [16]): 2.08 h | IC50 (Histone deacetylase 4): > 10 µM | IC50 [17]: 0.414 µM | Vd [18]: 13.708 L/kg | MRT at 24 h (in vivo [19]): 6.02 h | IC50 (K562): 1.87 µM | half-life at 24 h (in vivo [20]): 7.68 min | AUC(0-t) at 22 h (in vitro [21]): 217000 ng·h/mL | AUC(0-t) at 24 h (in vivo [22]): 656 ng·h/mL | inhibition [23]: 70% | IC50 (PC-3): 2.52 µM | half-life at 22 h (in vitro [24]): 11.1 h | IC50 (Histone deacetylase 9): > 10 µM

Structure (SMILES): Cc1cnc(Nc2ccc(OCCCC(=O)NO)cc2)nc1Nc1cccc(S(=O)(=O)NC(C)(C)C)c1
IC50 [26]: 0.0123 µM

Structure (SMILES): Cc1cnc(Nc2ccc(OCCCCCC(=O)NO)cc2)nc1Nc1cccc(S(=O)(=O)NC(C)(C)C)c1
IC50 (HEL): 2.52 µM | IC50 (A549): 2.33 µM | IC50 (HL-60): 2.58 µM | IC50 (HeLa): 3.96 µM | IC50 (MCF7): 3.22 µM | IC50 (K562): 4.22 µM | IC50 (PC-3): 2.76 µM

Structure (SMILES): Cc1cnc(Nc2ccc(OCCCCCCCC(=O)NO)cc2)nc1Nc1cccc(S(=O)(=O)NC(C)(C)C)c1
IC50 (HEL): 1.66 µM | IC50 (A549): 2.95 µM | IC50 (HL-60): 6.5 µM | IC50 (HeLa): 10.9 µM | IC50 (MCF7): 9.06 µM | IC50 (K562): 7.16 µM | IC50 (PC-3): 4.94 µM

Structure (SMILES): Cc1cnc(Nc2ccc(OCCCCCCC(=O)NO)c(C(F)(F)F)c2)nc1Nc1cccc(S(=O)(=O)NC(C)(C)C)c1
IC50 (HEL): 1.08 µM | IC50 (A549): 2.24 µM | IC50 (HL-60): 11.1 µM | IC50 (HeLa): 7.48 µM | IC50 (MCF7): 8.72 µM | IC50 (K562): 5.9 µM | IC50 (PC-3): 4.87 µM

Structure (SMILES): Cc1cnc(Nc2ccc(OCC(=O)NO)cc2)nc1Nc1cccc(S(=O)(=O)NC(C)(C)C)c1
IC50 [26]: 0.00433 µM
